“Also recorded” adds a separate entry of the source.
Assay: Toxicities attributed to Cediranib
Type: in vivo, human

**Q.** What does the source list for `COc1cc2c(Oc3ccc4[nH]c(C)cc4c3F)ncnc2cc1OCCCN1CCCC1` [cediranib, Cediranib]?
**A.** Eye disorders - Other, specify, events (patients) (grade 3 TOX): 1(1); Fatigue, events (patients) (grade 3 TOX): 2(2); Headache, events (patients) (grade 3 TOX): 2(2); Hydrocephalus, events (patients) (grade 3 TOX): 1(1); Hypertension, events (patients) (grade 3 TOX): 10(10); Hypertriglyceridemia, events (patients) (grade 3 TOX): 1(1); Hypokalemia, events (patients) (grade 3 TOX): 2(1); Hyponatremia, events (patients) (grade 3 TOX): 3(3); Lipase increased, events (patients) (grade 3 TOX): 1(1); Lymphocyte count decreased, events (patients) (grade 3 TOX): 5(3); Nausea, events (patients) (grade 3 TOX): 1(1); Neutrophil count decreased, events (patients) (grade 3 TOX): 2(2); Palmar-plantar erythrodysesthesia syndrome, events (patients) (grade 3 TOX): 3(3); Proteinuria, events (patients) (grade 3 TOX): 3(3); Reversible posterior leukoencephalopathy syndrome, events (patients) (grade 3 TOX): 1(1); Vomiting, events (patients) (grade 3 TOX): 1(1); Weight loss, events (patients) (grade 3 TOX): 1(1); White blood cell decreased, events (patients) (grade 3 TOX): 1(1); Alanine aminotransferase increased, events (patients) (grade 4 TOX): 1(1); Aspartate aminotransferase increased, events (patients) (grade 4 TOX): 1(1); Hypothyroidism, events (patients) (grade 4 TOX): 1(1); Lymphocyte count decreased, events (patients) (grade 4 TOX): 1(1); Nervous system disorders - Other, specify, events (patients) (grade 4 TOX): 1(1); Papilledema, events (patients) (grade 4 TOX): 1(1); fatigue, number of patients (human, in vivo): 16; left ventricular dysfunction (human, in vivo): No left ventricular dysfunction was identified in any of the patients; also recorded: No dose-limiting decreases in left ventricular function were observed; palmar-plantar erythrodysesthesia syndrome, number of patients (human, in vivo): 7; hypertension, percentage of patients (of 48 eligible patients): 77%; hypothyroidism, number of patients (of 48 eligible patients): 15; hypothyroidism, percentage of patients (of 48 eligible patients): 31%; proteinuria, number of patients (of 48 eligible patients): 20; proteinuria, percentage of patients (of 48 eligible patients): 42%; hypertension, number of patients (of 48 eligible patients, all dose levels): 37; diarrhea grade 3, number of patients (of thirty-two patients with diarrhea): 2; effect on bone growth: bone-related AEs (short duration of drug exposure in the majority of patients): no bone-related AEs were identified; Abdominal pain, events (patients) (total TOX): 10(10); Acidosis, events (patients) (total TOX): 1(1); Alanine aminotransferase increased, events (patients) (total TOX): 65(28); Alkaline phosphatase increased, events (patients) (total TOX): 2(2); Anal mucositis, events (patients) (total TOX): 1(1); Anal pain, events (patients) (total TOX): 1(1); Anemia, events (patients) (total TOX): 3(3); Anorexia, events (patients) (total TOX): 13(10); Arthralgia, events (patients) (total TOX): 1(1); Aspartate aminotransferase increased, events (patients) (total TOX): 43(21); Back pain, events (patients) (total TOX): 2(2); Blood bilirubin increased, events (patients) (total TOX): 13(7); Blurred vision, events (patients) (total TOX): 1(1); Bone pain, events (patients) (total TOX): 2(1); Capillary leak syndrome, events (patients) (total TOX): 1(1); Cardiac troponin I increased, events (patients) (total TOX): 1(1); Chest wall pain, events (patients) (total TOX): 1(1); Cholesterol high, events (patients) (total TOX): 1(1); Chronic kidney disease, events (patients) (total TOX): 1(1); Confusion, events (patients) (total TOX): 1(1); Constipation, events (patients) (total TOX): 6(2); Cough, events (patients) (total TOX): 1(1); Creatinine increased, events (patients) (total TOX): 1(1); Dehydration, events (patients) (total TOX): 4(4); Depressed level of consciousness, events (patients) (total TOX): 1(1); Depression, events (patients) (total TOX): 1(1); Diarrhea, events (patients) (total TOX): 61(32); Dizziness, events (patients) (total TOX): 5(3); Dry mouth, events (patients) (total TOX): 1(1); Dry skin, events (patients) (total TOX): 1(1); Dyspepsia, events (patients) (total TOX): 3(3); Dysphasia, events (patients) (total TOX): 1(1); Edema face, events (patients) (total TOX): 1(1); Edema limbs, events (patients) (total TOX): 1(1); Endocrine disorders - Other, specify, events (patients) (total TOX): 1(1); Enterocolitis, events (patients) (total TOX): 1(1); Epistaxis, events (patients) (total TOX): 5(4); Eye disorders - Other, specify, events (patients) (total TOX): 1(1); Fatigue, events (patients) (total TOX): 18(16); Fecal incontinence, events (patients) (total TOX): 1(1); Fever, events (patients) (total TOX): 1(1); Flushing, events (patients) (total TOX): 3(1); GGT increased, events (patients) (total TOX): 1(1); Gastritis, events (patients) (total TOX): 1(1); Gastrointestinal disorders - Other, specify, events (patients) (total TOX): 2(2); Headache, events (patients) (total TOX): 10(7); Hematuria, events (patients) (total TOX): 5(3); Hemoglobin increased, events (patients) (total TOX): 6(2); Hoarseness, events (patients) (total TOX): 1(1); Hydrocephalus, events (patients) (total TOX): 1(1); Hypercalcemia, events (patients) (total TOX): 3(2); Hyperglycemia, events (patients) (total TOX): 9(8); Hyperkalemia, events (patients) (total TOX): 2(2); Hypermagnesemia, events (patients) (total TOX): 7(5); Hypernatremia, events (patients) (total TOX): 5(4); Hypertension, events (patients) (total TOX): 57(37); Hyperthyroidism, events (patients) (total TOX): 2(2); Hypertriglyceridemia, events (patients) (total TOX): 1(1); Hypoalbuminemia, events (patients) (total TOX): 26(13); Hypocalcemia, events (patients) (total TOX): 17(8); Hypoglycemia, events (patients) (total TOX): 3(3); Hypokalemia, events (patients) (total TOX): 16(12); Hypomagnesemia, events (patients) (total TOX): 7(5); Hyponatremia, events (patients) (total TOX): 12(6); Hypophosphatemia, events (patients) (total TOX): 14(8); Hypothyroidism, events (patients) (total TOX): 21(15); Hypoxia, events (patients) (total TOX): 1(1); INR increased, events (patients) (total TOX): 1(1); Intracranial hemorrhage, events (patients) (total TOX): 4(4); Investigations - Other, specify, events (patients) (total TOX): 2(2); Joint effusion, events (patients) (total TOX): 1(1); Leukoencephalopathy, events (patients) (total TOX): 1(1); Lipase increased, events (patients) (total TOX): 2(1); Lymphocyte count decreased, events (patients) (total TOX): 24(10); Malaise, events (patients) (total TOX): 2(1); Mucositis oral, events (patients) (total TOX): 3(3); Myalgia, events (patients) (total TOX): 2(2); Nausea, events (patients) (total TOX): 19(10); Nervous system disorders - Other, specify, events (patients) (total TOX): 1(1); Neutrophil count decreased, events (patients) (total TOX): 20(10); Non-cardiac chest pain, events (patients) (total TOX): 1(1); Oral pain, events (patients) (total TOX): 2(2); Pain in extremity, events (patients) (total TOX): 4(4); Pain, events (patients) (total TOX): 1(1); Palmar-plantar erythrodysesthesia syndrome, events (patients) (total TOX): 17(7); Papilledema, events (patients) (total TOX): 1(1); Pericardial effusion, events (patients) (total TOX): 1(1); Peripheral motor neuropathy, events (patients) (total TOX): 1(1); Platelet count decreased, events (patients) (total TOX): 25(18); Pleural effusion, events (patients) (total TOX): 1(1); Proteinuria, events (patients) (total TOX): 36(20); Rash acneiform, events (patients) (total TOX): 2(2); Rash maculo-papular, events (patients) (total TOX): 5(5); Rectal pain, events (patients) (total TOX): 1(1); Renal and urinary disorders - Other, specify, events (patients) (total TOX): 1(1); Respiratory, thoracic and mediastinal disorders - Other, specify, events (patients) (total TOX): 1(1); Reversible posterior leukoencephalopathy syndrome, events (patients) (total TOX): 2(1); Seizure, events (patients) (total TOX): 1(1); Serum amylase increased, events (patients) (total TOX): 1(1); Skin and subcutaneous tissue disorders - Other, specify, events (patients) (total TOX): 1(1); Skin ulceration, events (patients) (total TOX): 1(1); Stomach pain, events (patients) (total TOX): 2(2); Urinary frequency, events (patients) (total TOX): 1(1); Urinary retention, events (patients) (total TOX): 1(1); Vascular disorders - Other, specify, events (patients) (total TOX): 2(2); Voice alteration, events (patients) (total TOX): 2(2); Vomiting, events (patients) (total TOX): 27(13); Weight loss, events (patients) (total TOX): 3(3); White blood cell decreased, events (patients) (total TOX): 18(11)

— PMC4561207 (Child's nervous system : ChNS : official journal of the …, 2015)
